According to patent publication US4460765A, “Enzyme inhibitor produced by cultivation of streptomyces microorganisms” (Sankyo Company Limited, priority 1979, dated 1984):

Assays:
[1] = target: low Km cAMP PDE, rat brain; experiment: cAMP PDE inhibition, low Km enzyme from rat brain; type: biochemical; settings: cAMP concentration 0.14 μM; for IC50: read-out: 50% inhibitory value (I50)
Procedure: (§1) The inhibitory activity of the compounds of the invention (or of compositions, e.g. culture broths, containing them) may be assayed by the method of Pichard and Thun [Journal of Biological Chemistry, 251, 5726-5737 (1976)], using a crude enzyme solution derived from rat brains as the cAMP PDE. In this method, ^14 C-labelled cAMP is used as the substrate and is reacted at 30° C. for 20 minutes with 2-5 μl of the compound or composition under test, 20 μl of a snake venom and 40 μl of the crude enzyme solution in a 0.2M tris-HCl buffer (pH 8.0). The tris-HCl buffer is a mixture of tris(hydroxymethyl)aminomethane and hydrochloric acid. After completion of the reaction, the reaction mixture is treated with an Amberlite (Trade Mark) IRP-58 resin. From the residual radioactivity of the adenosine in the product, the inhibitory activity of the compound or composition against the cAMP PDE can be calculated as a percentage.
(§2) The inhibitory activity of griseolic acid against cAMP PDE in terms of its 50% inhibitory value (I50) are shown in Table 5 against cAMP PDE from a variety of sources having either a high or a low Michaelis constant (Km). The results are reported as μmoles (μM).

[2] = tested on: high Km cAMP PDE, rat aorta; experiment: cAMP PDE inhibition, high Km enzyme from rat aorta; type: biochemical; settings: cAMP concentration 100 μM, read-out: 50% inhibitory value (I50)
Procedure: as §1, §2

Hela S-3 strain cells = experiment: basic tests on cytotoxicity; type: cell-based, mouse; settings: even at concentrations of 100 μg/ml
[3] = water solubility (qualitative); type: physicochemical
[4] = target: high Km cAMP PDE, rat kidney; experiment: cAMP PDE inhibition, high Km enzyme from rat kidney; type: biochemical; settings: cAMP concentration 100 μM, read-out: 50% inhibitory value (I50)
Procedure: as §1, §2

[5] = target: low Km cAMP PDE, rat kidney; experiment: cAMP PDE inhibition, low Km enzyme from rat kidney; type: biochemical; settings: cAMP concentration 0.14 μM, read-out: 50% inhibitory value (I50)
Procedure: as §1, §2

[6] = target: T1, low Km cAMP PDE, rat platelets (Rattus norvegicus, UniProt Q62865); experiment: cAMP PDE inhibition, low Km enzyme from rat platelets; type: biochemical; settings: cAMP concentration 0.14 μM, read-out: 50% inhibitory value (I50)
T1 construct: from tissue; host or cells: rat platelets
T1 sequence (Q62865 1-1141): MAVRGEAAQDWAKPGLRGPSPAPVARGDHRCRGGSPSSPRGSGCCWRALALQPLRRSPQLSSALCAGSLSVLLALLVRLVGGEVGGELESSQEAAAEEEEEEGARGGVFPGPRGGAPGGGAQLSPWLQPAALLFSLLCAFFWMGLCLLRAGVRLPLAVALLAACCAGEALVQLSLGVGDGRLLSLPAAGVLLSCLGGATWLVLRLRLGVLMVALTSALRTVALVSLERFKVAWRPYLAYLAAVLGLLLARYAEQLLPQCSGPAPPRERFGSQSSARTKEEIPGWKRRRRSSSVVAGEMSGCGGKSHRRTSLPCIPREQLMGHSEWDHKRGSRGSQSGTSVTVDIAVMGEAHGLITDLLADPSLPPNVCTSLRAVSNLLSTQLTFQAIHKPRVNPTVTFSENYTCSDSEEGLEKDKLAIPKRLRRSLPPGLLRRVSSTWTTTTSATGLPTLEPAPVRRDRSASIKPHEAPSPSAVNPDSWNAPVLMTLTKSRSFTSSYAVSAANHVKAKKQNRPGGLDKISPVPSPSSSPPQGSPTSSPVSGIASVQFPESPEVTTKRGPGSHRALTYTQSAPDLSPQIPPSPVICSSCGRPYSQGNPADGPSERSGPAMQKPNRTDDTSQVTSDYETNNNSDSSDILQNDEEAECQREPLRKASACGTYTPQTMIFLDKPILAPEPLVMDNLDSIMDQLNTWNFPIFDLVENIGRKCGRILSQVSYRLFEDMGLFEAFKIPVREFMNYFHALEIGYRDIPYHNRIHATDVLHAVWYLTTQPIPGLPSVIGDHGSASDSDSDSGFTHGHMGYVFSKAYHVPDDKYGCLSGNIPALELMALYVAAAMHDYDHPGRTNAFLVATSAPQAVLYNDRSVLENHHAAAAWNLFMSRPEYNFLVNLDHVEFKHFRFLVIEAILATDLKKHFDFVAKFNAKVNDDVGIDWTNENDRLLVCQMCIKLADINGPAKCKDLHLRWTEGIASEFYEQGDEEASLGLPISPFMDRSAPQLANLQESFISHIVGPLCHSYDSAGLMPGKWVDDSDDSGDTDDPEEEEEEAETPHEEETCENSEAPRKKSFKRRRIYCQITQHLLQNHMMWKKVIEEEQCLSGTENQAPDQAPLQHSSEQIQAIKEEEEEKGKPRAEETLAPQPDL
Procedure: as §1, §2

[7] = tested on: low Km cAMP PDE, rat aorta; experiment: cAMP PDE inhibition, low Km enzyme from rat aorta; type: biochemical; settings: cAMP concentration 0.14 μM, read-out: 50% inhibitory value (I50)
Procedure: as §1, §2

[8] = target: low Km cAMP PDE, rat heart; experiment: cAMP PDE inhibition, low Km enzyme from rat heart; type: biochemical; settings: cAMP concentration 0.14 μM, read-out: 50% inhibitory value (I50)
Procedure: as §1, §2

[9] = target: high Km cAMP PDE, rat heart; experiment: cAMP PDE inhibition, high Km enzyme from rat heart; type: biochemical; settings: cAMP concentration 100 μM, read-out: 50% inhibitory value (I50)
Procedure: as §1, §2

[10] = tested on: high Km cAMP PDE, rat platelets; experiment: cAMP PDE inhibition, high Km enzyme from rat platelets; type: biochemical; settings: cAMP concentration 100 μM, read-out: 50% inhibitory value (I50)
Procedure: as §1, §2

[11] = target: high Km cAMP PDE, rat brain; experiment: cAMP PDE inhibition, high Km enzyme from rat brain; type: biochemical; settings: cAMP concentration 100 μM, read-out: 50% inhibitory value (I50)
Procedure: as §1, §2

IC50 [2]	water solubility [3]	IC50 [4]	inhibitory activity relative to papaverine (times stronger) [1]	IC50 [5]	IC50 [6]	IC50 [7]	IC50 [8]	IC50 [9]	IC50 [10]	IC50 [11]	Compound	IC50 [1]	inhibition of cell growth (Hela S-3 strain cells)
											COc1ccc(Cc2nccc3cc(OC)c(OC)cc23)cc1OC [Papaverine, reference compound]	3500 nM	
510 nM	water-soluble	580 nM	about 20 times	120 nM	41 nM	31 nM	36 nM	340 nM	8000 nM	800 nM	Nc1ncnc2c1ncn2C1OC2=C(C(=O)O)C(C(O)C(=O)O)OC2C1O (centres unmarked) [griseolic acid]	160 nM	no inhibition of cell growth
